We go through one compound from patent publication US20070248705A1, “Agents for Activating the Transcription Factor Nrf2 and Foods Having Such Function” (KIRIN BEER KABUSHIKI KAISHA, priority 2004, published 2007).

The subject of assay [1] is glucose-6-phosphate dehydrogenase 2 (G6PD2). In words: Expression of genes controlled by Nrf2 in RAW264.7: G6PD2. The note with it: RAW264.7, 25 μM, 20 hours. It is filed as cell-based, mouse. The protocol:
(§1) A mouse macrophage cell line RAW264.7 was seeded on a φ60 mm dish (9×10^5 cells), 2 ml of a D-MEM medium (Invitrogen) supplemented with 10% fetal bovine serum (HyClone) and penicillin-streptomycin (100 units/ml and 100 μg/ml, respectively; Sigma) was added, and the dish was incubated at 37° C. in an atmosphere of 5% CO2 for 2 days. The medium was replaced with a fresh medium containing individual samples and incubation was continued for another 20 hours. Then, the total RNA was prepared using TRIzol (Invitrogen) and purified using a RNeasy Mini kit (Qiagen) and an RNase-free DNase set (Qiagen). Further, cDNA was synthesized from 5 μg of the purified total RNA using a Thermo Script RT-PCR system (Invitrogen), and the amount of mRNA expression of various genes was determined using a FastStart DNA Master SYBR Green I kit (Roche) and a Light Cycler (Roche).
(§2) The amount of expression of the various genes was corrected by the amount of expression of the housekeeping gene PO and calculated as a relative expression level (n=2, mean±standard deviation). […]

Assay [2] relates to glutathione S-transferase pi2 (GSTP2). As to the kind of experiment: Expression of genes controlled by Nrf2 in RAW264.7: GSTP2. The conditions noted are these: RAW264.7, 25 μM, 20 hours. It is filed as cell-based, mouse. As for the experimental part: as §1, §2
Assay [3] has as its system mouse macrophage cell line RAW264.7. In words: Amount of intracellular glutathione. The note with it: RAW264.7, 25 μM, 20 hours. It is filed as cell-based. The protocol:
A mouse macrophage cell line RAW264.7 was seeded on a φ60 mm dish (7×10^5 cells), 2 ml of a D-MEM medium (Invitrogen) supplemented with 10% fetal bovine serum (HyClone) and penicillin-streptomycin (100 units/ml and 100 μg/ml, respectively; Sigma) was added, and the dish was incubated at 37° C. in an atmosphere of 5% CO2 for 2 days. The medium was replaced with a fresh medium containing individual samples and incubation was continued for another 20 hours. The samples added were isohumulone (IH(F)) and isohumulone (IcH(G)) at a concentration of 25 μM. The cells were recovered, broken by ultrasonication, and centrifuged to obtain the supernatant, and the amount of the total intracellular glutathione was measured using a glutathione assay kit (Cayman Chemical) (n=2, mean±standard deviation). As a positive control, 15dPGJ2 (Cayman Chemical) was used.

A further assay deals with TNF-α. As to the kind of experiment: Suppression of TNF-α production by macrophages (TPA and IFN-γ). It is filed as cell-based, mouse. The conditions noted are these: RAW264.7, TPA 400 nM and IFN-γ 10 units/ml, 5, 10, 20, and 40 μM, 24 hours. As for the experimental part: A mouse macrophage cell line RAW264.7 (4×10^4 cells/well) was seeded on a 96-well plate, […] of a D-MEM medium (Invitrogen) containing each sample, 10% fetal bovine serum (HyClone), and penicillin-streptomycin (100 units/ml and 100 μg/ml, respectively; Sigma) was added, and the plate was incubated at 37° C. in an atmosphere of 5% CO2 for 4 hours. Then 150 μl of a medium containing TPA (phorbol 12-tetradecanoate 13-acetate, Sigma), mouse IFN-γ (interferon-γ, eBioscience), and each sample was added and incubation was carried out for 24 hours. TPA and IFN-γ were added at a final concentration of 400 nM and 10 units/ml, respectively. As samples, isomerized hop extract was added at a concentration of 5, 10, 20, and 30 μ/ml and isohumulone (IH(F)) and isohumulone (IcH(G)) were added individually at a concentration of 5, 10, 20, and 40 μM.
After completing incubation, the amount of TNF-α in the culture fluid was measured using a mouse TNF-α ELISA kit(eBioscience). The amount of TNF-α was expressed as a relative value by setting the value for the control as 100% (n=3, mean±standard variation). As a positive control, 15dPGJ2 (Cayman Chemical) was used.

A further assay concerns CD36. As to the kind of experiment: Expression of genes controlled by Nrf2 in RAW264.7: CD36. Type of assay: cell-based, mouse. The note with it: RAW264.7, 25 μM, 20 hours. As for the experimental part:
as §1, §2

Another assay concerns catalase 1 (CAT1). As to the kind of experiment: Expression of genes controlled by Nrf2 in RAW264.7: CAT1. It is filed as cell-based, mouse. The conditions noted are these: RAW264.7, 25 μM, 20 hours. As for the experimental part:
as §1, §2

For assay [4], the system named is glutathione S-transferase mu1 (GSTM1). As to the kind of experiment: Expression of genes controlled by Nrf2 in RAW264.7: GSTM1. It is filed as cell-based, mouse. The note with it: RAW264.7, 25 μM, 20 hours. As for the experimental part: as §1, §2

For the compound `CC(C)=CCC(=O)C1(O)C(O)=C(C(=O)CC(C)C)C(=O)C1CC=C(C)C` (stereo not shown) [IH (F), isohumulone], in assay [1], the “expression of G6PD2” value is recorded as “augmented the expression”. For the same compound, in assay [2], the “expression of GSTP2” value is listed as “augmented the expression”. The “amount of the total intracellular glutathione” value in assay [3] is reported as “Increased the amount of the total intracellular glutathione”. In addition, the TNF-α production result with TNF-α is recorded as “concentration-dependently suppressed”. Further, in the assay with CD36, the “expression of CD36” value is recorded as “augmented the expression”. Also, the “expression of CAT1” value with catalase 1 (CAT1) is “augmented the expression”. For the same compound, the “expression of GSTM1” value in assay [4] is on record as “augmented the expression”.
